Test results from patent US20050169994A1 (priority 2003, published 2005).
Counter-ions that a name gives are not always drawn. Like-named read-outs stand apart in the source and are kept apart here.

Experiments:
[1] = pH 7.1
[2] = cited from earlier work
[3] = R and S isomers, systemic circulation; cited from earlier work
[4] = pH-solubility profile for carvedilol; conditions: aqueous medium
[5] = Solubility in water at 25° C. over time, with pH of filtered solution
Excerpt: Aliquots were taken out at various time-point, filtered through 0.45 μm Acrodisc GHP filter.

In the case of `COc1ccccc1OCCNCC(O)COc1cccc2[nH]c3ccccc3c12` (stereo not drawn) [Carvedilol], the solubility [1] is given as 20 to 30 µg/mL, the solubility ([2]; above a pH of 9.0) is given as under 1 µg/mL and the saturation solubility ([2]; pH=5, room temperature) is given as “about 100 μg/mL”. For the same compound, the saturation solubility ([2]; pH=7, room temperature) was “about 23 μg/mL”, the alpha elimination phase [3] was “about 1.5 hours” and the solubility thermodynamic [4] was at most 100 µg/mL.

With `COc1ccccc1OCCNCC(O)COc1cccc2[nH]c3ccccc3c12` (stereo not drawn) [HBr salt, carvedilol hydrobromide] the “aqueous solubility compared with free base” value [5] was “much better aqueous solubility than the free base”.

With `COc1ccccc1OCCNCC(O)COc1cccc2[nH]c3ccccc3c12.O=P(O)(O)O` (stereo not drawn) [Phosphate salt, Carvedilol dihydrogen phosphate] the “aqueous solubility compared with free base” value ([5]; in words) was “much better aqueous solubility than the free base”.

For `COc1ccccc1OCCNCC(O)COc1cccc2[nH]c3ccccc3c12` (stereo not drawn) [hydrochloride salt of carvedilol, carvedilol hydrochloride], the “solubility in acidic medium” value ([2]; salt generated in situ in acidic medium simulating gastric fluid) is listed as “less soluble”.
